Test results from the supplement of paper PMC10307832.

Key:
Experiment in all cases: relative viability (nuclei count vs DMSO), 5 days (fraction); higher = more cells survive
Carboplatin + OSI-027 = compound: C1CC(C1)(C(=O)O)C(=O)O.[NH2-].[NH2-].[Pt+2] [Carboplatin] + COc1cccc2cc(-c3nc([C@H]4CC[C@H](C(=O)O)CC4)n4ncnc(N)c34)[nH]c12 [OSI-027] (partner 0.5 µM)
Summary of the method: (§1)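 Relative viability is defined as nuclei in treated wells over nuclei in vehicle wells. Duplicate plates were run and medians reported. Lung cancer cell lines in 1536-well plates were dosed by pin tool one day after seeding, with one drug or with a fixed anchor-drug dose plus five library-drug doses (not always all listed) in √10 steps, and nuclei were counted after 5 days.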

GSK126 + AZD7762 = compound: CC[C@H](C)N1C=C(C2=C(C=C(C=C21)C3=CN=C(C=C3)N4CCNCC4)C(=O)NCC5=C(C=C(NC5=O)C)C)C [GSK126] + NC(=O)Nc1cc(-c2cccc(F)c2)sc1C(=O)N[C@H]1CCCNC1 [AZD7762] (partner 0.2 µM)
Summary of the method: as §1

MLN4924 + OSI-027 = compound: NS(=O)(=O)OC[C@@H]1C[C@@H](n2ccc3c(N[C@H]4CCc5ccccc54)ncnc32)C[C@@H]1O [MLN4924] + COc1cccc2cc(-c3nc([C@H]4CC[C@H](C(=O)O)CC4)n4ncnc(N)c34)[nH]c12 [OSI-027] (partner 0.5 µM)
Summary of the method: as §1

MLN4924 + Phenformin = compound: NS(=O)(=O)OC[C@@H]1C[C@@H](n2ccc3c(N[C@H]4CCc5ccccc54)ncnc32)C[C@@H]1O [MLN4924] + N=C(N)NC(=N)NCCc1ccccc1 [Phenformin] (partner 250 µM)
Summary of the method: as §1

Row | Cell Line | relative viability (Carboplatin + OSI-027; first compound 0.08 µM) | relative viability (Carboplatin + OSI-027; first compound 0.253 µM) | relative viability (Carboplatin + OSI-027; first compound 0.8 µM) | relative viability (Carboplatin + OSI-027; first compound 2.53 µM) | relative viability (Carboplatin + OSI-027; first compound 8 µM) | relative viability (GSK126 + AZD7762; first compound 0.08 µM) | relative viability (GSK126 + AZD7762; first compound 0.253 µM) | relative viability (GSK126 + AZD7762; first compound 0.8 µM) | relative viability (GSK126 + AZD7762; first compound 2.53 µM) | relative viability (GSK126 + AZD7762; first compound 8 µM) | relative viability (MLN4924 + OSI-027; first compound 0.04 µM) | relative viability (MLN4924 + OSI-027; first compound 0.1265 µM) | relative viability (MLN4924 + OSI-027; first compound 0.4 µM) | relative viability (MLN4924 + OSI-027; first compound 1.265 µM) | relative viability (MLN4924 + OSI-027; first compound 4 µM) | relative viability (MLN4924 + Phenformin; first compound 0.04 µM) | relative viability (MLN4924 + Phenformin; first compound 0.1265 µM) | relative viability (MLN4924 + Phenformin; first compound 0.4 µM) | relative viability (MLN4924 + Phenformin; first compound 1.265 µM) | relative viability (MLN4924 + Phenformin; first compound 4 µM)
1 | NCI-H441 | 0.715 | 0.668 | 0.767 | 0.696 | 0.451 | 1.29 | 0.965 | 1.03 | 1.1 | 1.08 | 0.596 | 0.613 | 0.258 | 0.139 | 0.193 | 0.79 | 0.554 | 0.333 | 0.211 | 0.227
2 | NCI-H3122 | 0.985 | 1.24 | 0.828 | 0.732 | 0.752 | 0.968 | 1.01 | 0.956 | 1.03 | 1.01 | 0.917 | 0.603 | 0.219 | 0.122 | 0.121 | 0.315 | 0.274 | 0.169 | 0.131 | 0.136
3 | HCC-78 | 0.433 | 0.368 | 0.341 | 0.379 | 0.375 | 0.675 | 0.652 | 0.604 | 0.832 | 0.736 | 0.416 | 0.349 | 0.399 | 0.27 | 0.236 | 0.694 | 0.634 | 0.888 | 0.219 | 0.203
4 | HCC-827 | 0.774 | 0.851 | 0.783 | 0.732 | 0.655 | 0.214 | 0.191 | 0.24 | 0.232 | 0.196 | 0.794 | 0.558 | 0.686 | 0.151 | 0.159 | 0.453 | 0.462 | 0.316 | 0.144 | 0.136
5 | NCI-H2009 | 0.699 | 0.597 | 0.61 | 0.56 | 0.402 |  |  |  |  |  | 0.249 | 0.149 | 0.187 | 0.0664 | 0.0797 | 0.24 | 0.184 | 0.156 | 0.0904 | 0.0791
6 | NCI-H322M | 0.544 | 0.503 | 0.599 | 0.506 | 0.408 | 0.538 | 0.531 | 0.536 | 0.647 | 0.53 | 0.622 | 0.588 | 0.339 | 0.272 | 0.329 | 0.908 | 0.65 | 0.473 | 0.248 | 0.306
7 | NCI-H23 | 0.843 | 0.599 | 0.671 | 0.575 | 0.435 | 0.248 | 0.214 | 0.208 | 0.29 | 0.205 | 0.514 | 0.497 | 0.244 | 0.136 | 0.177 | 0.764 | 0.8 | 0.406 | 0.341 | 0.233
8 | NCI-H1648 | 0.238 | 0.258 | 0.247 |  | 0.265 | 0.568 | 0.756 | 0.73 | 0.718 | 0.522 | 0.246 | 0.235 | 0.21 | 0.205 | 0.228 |  |  |  |  | 
9 | NCI-H358 | 1 | 0.878 | 0.8 | 0.843 | 0.611 | 0.552 | 0.471 | 0.482 | 0.768 | 0.476 | 0.968 | 0.649 | 0.492 | 0.0759 | 0.118 | 0.354 | 0.366 | 0.171 | 0.0905 | 0.0916
10 | SW 1573 | 0.653 | 0.694 | 0.67 | 0.617 | 0.437 |  |  |  |  |  | 0.684 | 0.666 | 0.191 | 0.0527 | 0.0802 | 0.325 | 0.297 | 0.144 | 0.086 | 0.0734
11 | NCI-H661 | 0.758 | 0.824 | 0.66 | 0.578 | 0.478 |  |  |  |  |  | 0.751 | 0.876 | 0.689 | 0.319 | 0.349 | 0.289 | 0.329 | 0.294 | 0.286 | 0.234
12 | NCI-H1563 | 0.821 | 0.751 | 0.773 | 0.754 | 0.775 |  |  |  |  |  | 0.981 | 1.04 | 0.74 | 0.526 | 0.524 | 0.832 | 0.87 | 0.666 | 0.498 | 0.57
13 | NCI-H1650 | 0.736 | 0.593 | 0.653 | 0.574 | 0.341 |  |  |  |  |  | 0.564 | 0.379 | 0.184 | 0.102 | 0.17 | 0.398 | 0.339 | 0.231 | 0.146 | 0.198
14 | NCI-H2228 | 0.685 | 0.63 | 0.597 | 0.64 | 0.349 |  |  |  |  |  | 0.611 | 0.683 | 0.148 | 0.141 | 0.14 | 0.327 | 0.38 | 0.194 | 0.134 | 0.146
15 | NCI-H1623 | 0.481 | 0.404 | 0.455 | 0.41 | 0.385 |  |  |  |  |  | 0.404 | 0.421 | 0.404 | 0.333 | 0.314 | 0.503 | 0.479 | 0.39 | 0.274 | 0.248
16 | SK-LU-1 | 0.444 | 0.387 | 0.339 | 0.292 | 0.213 |  |  |  |  |  | 0.366 | 0.331 | 0.177 | 0.128 | 0.139 | 0.514 | 0.558 | 0.22 | 0.0997 | 0.131
17 | SK-MES-1 | 0.684 | 0.609 | 0.699 | 0.628 | 0.553 |  |  |  |  |  | 0.678 | 0.585 | 0.266 | 0.133 | 0.16 | 0.555 | 0.444 | 0.309 | 0.202 | 0.2
18 | COR-L 105 | 0.835 | 0.776 | 0.696 | 0.62 | 0.537 |  |  |  |  |  | 0.721 | 0.617 | 0.511 | 0.238 | 0.311 | 0.567 | 0.366 | 0.325 | 0.244 | 0.301
19 | NCI-H520 | 0.245 | 0.237 | 0.317 | 0.289 | 0.253 |  |  |  |  |  | 0.294 | 0.295 | 0.363 | 0.202 | 0.191 | 0.566 | 0.439 | 0.429 | 0.265 | 0.238
